pIC50: −log10 of the molar value.
Biological target: T1, c-Met kinase (recombinant c-Met) (Homo sapiens, UniProt P08581)
T1 construct: 0.27 nM recombinant c-Met
Assay: In vitro kinase assay I (homogeneous time-resolved fluorescence tyrosine kinase assay)
Assay type: biochemical
Procedure, shortened: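 Biotinylated peptide (0.5 μM) phosphorylated by 0.2 nM recombinant c-Met with 50 μM MgATP, 60 min at room temperature, pH 7.4, 5% DMSO. EDTA stop; HTRF read with Eu-anti-phosphotyrosine antibody and streptavidin-APC. IC50 from 4-parameter logistic fit.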

T1 sequence (P08581 25-1390): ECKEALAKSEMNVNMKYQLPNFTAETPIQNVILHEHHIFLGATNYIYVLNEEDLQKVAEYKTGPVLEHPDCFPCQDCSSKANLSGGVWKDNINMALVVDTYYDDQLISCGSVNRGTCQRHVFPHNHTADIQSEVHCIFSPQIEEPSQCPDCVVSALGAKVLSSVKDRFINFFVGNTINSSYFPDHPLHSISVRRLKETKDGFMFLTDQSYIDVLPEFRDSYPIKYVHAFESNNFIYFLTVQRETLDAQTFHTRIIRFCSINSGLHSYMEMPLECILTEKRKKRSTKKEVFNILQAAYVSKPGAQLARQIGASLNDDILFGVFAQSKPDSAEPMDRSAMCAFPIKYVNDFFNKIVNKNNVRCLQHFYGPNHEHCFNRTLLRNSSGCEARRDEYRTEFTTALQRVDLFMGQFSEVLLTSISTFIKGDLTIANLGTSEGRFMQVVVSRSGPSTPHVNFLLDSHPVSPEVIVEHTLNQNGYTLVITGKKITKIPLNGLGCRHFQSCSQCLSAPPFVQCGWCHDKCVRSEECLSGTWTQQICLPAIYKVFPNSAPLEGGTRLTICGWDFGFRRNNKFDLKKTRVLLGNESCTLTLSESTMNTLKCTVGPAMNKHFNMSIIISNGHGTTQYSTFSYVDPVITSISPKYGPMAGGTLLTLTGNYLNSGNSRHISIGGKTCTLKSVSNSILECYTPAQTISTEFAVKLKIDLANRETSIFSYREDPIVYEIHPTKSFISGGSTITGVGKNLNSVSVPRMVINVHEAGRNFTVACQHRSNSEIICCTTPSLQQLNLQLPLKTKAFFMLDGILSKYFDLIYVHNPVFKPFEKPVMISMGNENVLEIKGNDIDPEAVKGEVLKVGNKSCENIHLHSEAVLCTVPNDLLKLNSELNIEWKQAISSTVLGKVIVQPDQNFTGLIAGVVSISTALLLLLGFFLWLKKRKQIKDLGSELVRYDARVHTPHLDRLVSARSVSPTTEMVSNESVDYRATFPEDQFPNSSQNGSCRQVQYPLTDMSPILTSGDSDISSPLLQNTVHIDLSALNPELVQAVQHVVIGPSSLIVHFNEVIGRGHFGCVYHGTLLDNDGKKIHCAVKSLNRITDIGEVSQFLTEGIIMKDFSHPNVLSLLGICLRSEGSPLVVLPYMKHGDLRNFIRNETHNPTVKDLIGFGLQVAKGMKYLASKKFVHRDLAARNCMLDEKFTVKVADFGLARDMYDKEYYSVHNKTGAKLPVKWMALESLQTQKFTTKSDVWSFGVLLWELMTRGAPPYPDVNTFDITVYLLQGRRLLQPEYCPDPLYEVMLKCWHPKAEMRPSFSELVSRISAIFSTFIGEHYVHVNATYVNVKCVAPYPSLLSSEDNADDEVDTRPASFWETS

pIC50	Structure (SMILES)
6.00 to 7.00	CCOc1cnc(-c2cccc(C(C)c3nn(-c4cnn(C)c4)ccc3=O)c2)nc1 (single isomer, unassigned) [Example 201, 3-{(1S or R)-1-[3-(5-ethoxypyrimidin-2-yl)phenyl]ethyl}-1-(1-methyl-1H-pyrazol-4-yl)pyridazin-4(1H)-one]
> 7.00	CCOc1cnc(-c2cccc(C(C)c3nn(-c4cnn(C)c4)ccc3=O)c2)nc1 (single isomer, unassigned) [Example 202, 3-{(1R or S)-1-[3-(5-ethoxypyrimidin-2-yl)phenyl]ethyl}-1-(1-methyl-1H-pyrazol-4-yl)pyridazin-4(1H)-one]
6.00 to 7.00	COc1cnc(-c2cccc(C(C)c3nn(-c4cnn(C)c4)ccc3=O)c2)nc1 (single isomer, unassigned) [Example 203, 3-{(1S or R)-1-[3-(5-Methoxypyrimidin-2-yl)phenyl]ethyl}-1-(1-methyl-1H-pyrazol-4-yl)pyridazin-4(1H)-one]
> 7.00	COc1cnc(-c2cccc(C(C)c3nn(-c4cnn(C)c4)ccc3=O)c2)nc1 (single isomer, unassigned) [Example 204, 3-{(1R or S)-1-[3-(5-methoxypyrimidin-2-yl)phenyl]ethyl}-1-(1-methyl-1H-pyrazol-4-yl)pyridazin-4(1H)-one]
6.00 to 7.00	CCOc1cnc(-c2cccc(C(CC)c3nn(-c4cnn(C)c4)ccc3=O)c2)nc1 (single isomer, unassigned) [Example 205, 3-{(1S or R)-1-[3-(5-ethoxypyrimidin-2-yl)phenyl]propyl}-1-(1-methyl-1H-pyrazol-4-yl)pyridazin-4(1H)-one]
> 7.00	CCOc1cnc(-c2cccc(C(CC)c3nn(-c4cnn(C)c4)ccc3=O)c2)nc1 (single isomer, unassigned) [Example 206, 3-{(1R or S)-1-[3-(5-ethoxypyrimidin-2-yl)phenyl]propyl}-1-(1-methyl-1H-pyrazol-4-yl)pyridazin-4(1H)-one]
6.00 to 7.00	CCCC(c1cccc(-c2ncc(OCC)cn2)c1)c1nn(-c2cnn(C)c2)ccc1=O (single isomer, unassigned) [Example 207, 3-{(1S or R)-1-[3-(5-ethoxypyrimidin-2-yl)phenyl]butyl}-1-(1-methyl-1H-pyrazol-4-yl)pyridazin-4(1H)-one]
> 7.00	CCCC(c1cccc(-c2ncc(OCC)cn2)c1)c1nn(-c2cnn(C)c2)ccc1=O (single isomer, unassigned) [Example 208, 3-{(1R or S)-1-[3-(5-ethoxypyrimidin-2-yl)phenyl]butyl}-1-(1-methyl-1H-pyrazol-4-yl)pyridazin-4(1H)-one]
6.00 to 7.00	CC(c1cccc(-c2ncc(OC(F)F)cn2)c1)c1nn(-c2cnn(C)c2)ccc1=O (single isomer, unassigned) [Example 209, 3-[(1S or R)-1-{3-[5-(difluoromethoxy)pyrimidin-2-yl]phenyl}ethyl]-1-(1-methyl-1H-pyrazol-4-yl)pyridazin-4(1H)-one]
> 7.00	CC(c1cccc(-c2ncc(OC(F)F)cn2)c1)c1nn(-c2cnn(C)c2)ccc1=O (single isomer, unassigned) [Example 210, 3-[(1R or S)-1-{3-[5-(difluoromethoxy)pyrimidin-2-yl]phenyl}ethyl]-1-(1-methyl-1H-pyrazol-4-yl)pyridazin-4(1H)-one]
> 7.00	CC(c1cccc(-c2ncc(OC3CCOCC3)cn2)c1)c1nn(-c2cnn(C)c2)ccc1=O (single isomer, unassigned) [Example 211, 1-(1-methyl-1H-pyrazol-4-yl)-3-[(1S or R)-1-{3-[5-(tetrahydro-2H-pyran-4-yloxy)pyrimidin-2-yl]phenyl}ethyl]pyridazin-4(1H)-one]
> 7.00	CC(c1cccc(-c2ncc(OC3CCOCC3)cn2)c1)c1nn(-c2cnn(C)c2)ccc1=O (single isomer, unassigned) [Example 212, 1-(1-methyl-1H-pyrazol-4-yl)-3-[(1R or S)-1-{3-[5-(tetrahydro-2H-pyran-4-yloxy)pyrimidin-2-yl]phenyl}ethyl]pyridazin-4(1H)-one]
6.00 to 7.00	CCn1cc(-n2ccc(=O)c(C(C)c3cccc(-c4ncc(OC5COC5)cn4)c3)n2)cn1 (single isomer, unassigned) [Example 213, 1-(1-ethyl-1H-pyrazol-4-yl)-3-((1S or R)-1-{3-[5-(oxetan-3-yloxy)pyrimidin-2-yl]phenyl}ethyl)pyridazin-4(1H)-one]
> 7.00	CCn1cc(-n2ccc(=O)c(C(C)c3cccc(-c4ncc(OC5COC5)cn4)c3)n2)cn1 (single isomer, unassigned) [Example 214, 1-(1-ethyl-1H-pyrazol-4-yl)-3-((1R or S)-1-{3-[5-(oxetan-3-yloxy)pyrimidin-2-yl]phenyl}ethyl)pyridazin-4(1H)-one]
6.00 to 7.00	CC(c1cccc(-c2ncc(OC3COC3)cn2)c1)c1nn(-c2cnn(C)c2)ccc1=O (single isomer, unassigned) [Example 215, 1-(1-methyl-1H-pyrazol-4-yl)-3-((1S or R)-1-{3-[5-(oxetan-3-yloxy)pyrimidin-2-yl]phenyl}ethyl)pyridazin-4(1H)-one]
> 7.00	CC(c1cccc(-c2ncc(OC3COC3)cn2)c1)c1nn(-c2cnn(C)c2)ccc1=O (single isomer, unassigned) [Example 216, 1-(1-methyl-1H-pyrazol-4-yl)-3-((1R or S)-1-{3-[5-(oxetan-3-yloxy)pyrimidin-2-yl]phenyl}ethyl)pyridazin-4(1H)-one]
6.00 to 7.00	CCn1cc(-n2ccc(=O)c(C(C)c3cccc(-c4ncc(COC)cn4)c3)n2)cn1 (single isomer, unassigned) [Example 217, 1-(1-ethyl-1H-pyrazol-4-yl)-3-((1S or R)-1-{3-[5-(methoxymethyl)pyrimidin-2-yl]phenyl}ethyl)pyridazin-4(1H)-one]
> 7.00	CCn1cc(-n2ccc(=O)c(C(C)c3cccc(-c4ncc(COC)cn4)c3)n2)cn1 (single isomer, unassigned) [Example 218, 1-(1-ethyl-1H-pyrazol-4-yl)-3-((1R or S)-1-{3-[5-(methoxymethyl)pyrimidin-2-yl]phenyl}ethyl)pyridazin-4(1H)-one]
6.00 to 7.00	COCc1cnc(-c2cccc(C(C)c3nn(-c4cnn(C)c4)ccc3=O)c2)nc1 (single isomer, unassigned) [Example 219, 3-((1S or R)-1-{3-[5-(methoxymethyl)pyrimidin-2-yl]phenyl}ethyl)-1-(1-methyl-1H-pyrazol-4-yl)pyridazin-4(1H)-one]
> 7.00	COCc1cnc(-c2cccc(C(C)c3nn(-c4cnn(C)c4)ccc3=O)c2)nc1 (single isomer, unassigned) [Example 220, 3-((1R or S)-1-{3-[5-(methoxymethyl)pyrimidin-2-yl]phenyl}ethyl)-1-(1-methyl-1H-pyrazol-4-yl)pyridazin-4(1H)-one]
6.00 to 7.00	COCCOc1cnc(-c2cccc(C(C)c3nn(-c4cnn(C)c4)ccc3=O)c2)nc1 (single isomer, unassigned) [Example 222, 3-((1S or R)-1-{3-[5-(2-methoxyethoxy)pyrimidin-2-yl]phenyl}ethyl)-1-(1-methyl-1H-pyrazol-4-yl)pyridazin-4(1H)-one]
> 7.00	COCCOc1cnc(-c2cccc(C(C)c3nn(-c4cnn(C)c4)ccc3=O)c2)nc1 (single isomer, unassigned) [Example 223, 3-((1R or S)-1-{3-[5-(2-methoxyethoxy)pyrimidin-2-yl]phenyl}ethyl)-1-(1-methyl-1H-pyrazol-4-yl)pyridazin-4(1H)-one]
6.00 to 7.00	CCOc1cnc2ccc(C(C)c3nn(-c4cnn(CC)c4)ccc3=O)cc2c1 (single isomer, unassigned) [Example 226, 3-[(1S or R)-1-(3-ethoxyquinolin-6-yl)ethyl]-1-(1-ethyl-1H-pyrazol-4-yl)pyridazin-4(1H)-one]
> 7.00	CCOc1cnc2ccc(C(C)c3nn(-c4cnn(CC)c4)ccc3=O)cc2c1 (single isomer, unassigned) [Example 227, 3-[(1R or S)-1-(3-ethoxyquinolin-6-yl)ethyl]-1-(1-ethyl-1H-pyrazol-4-yl)pyridazin-4(1H)-one]
6.00 to 7.00	CCn1cc(-n2ccc(=O)c(C(C)c3cccc(-c4ncc(OCc5ccccc5)cn4)c3)n2)cn1 (single isomer, unassigned) [Example 228, 3-((1S or R)-1-{3-[5-(benzyloxy)pyrimidin-2-yl]phenyl}ethyl)-1-(1-ethyl-1H-pyrazol-4-yl)pyridazin-4(1H)-one]
> 7.00	CCn1cc(-n2ccc(=O)c(C(C)c3cccc(-c4ncc(OCc5ccccc5)cn4)c3)n2)cn1 (single isomer, unassigned) [Example 229, 3-((1R or S)-1-{3-[5-(benzyloxy)pyrimidin-2-yl]phenyl}ethyl)-1-(1-ethyl-1H-pyrazol-4-yl)pyridazin-4(1H)-one]
6.00 to 7.00	CCc1cnc(-c2cccc(C(C)c3nn(-c4ccc(F)c(F)c4)ccc3=O)c2)nc1 (single isomer, unassigned) [Example 230, 1-(3,4-difluorophenyl)-3-{(1S or R)-1-[3-(5-ethylpyrimidin-2-yl)phenyl]ethyl}pyridazin-4(1H)-one]
> 7.00	CCc1cnc(-c2cccc(C(C)c3nn(-c4ccc(F)c(F)c4)ccc3=O)c2)nc1 (single isomer, unassigned) [Example 231, 1-(3,4-difluorophenyl)-3-{(1R or S)-1-[3-(5-ethylpyrimidin-2-yl)phenyl]ethyl}pyridazin-4(1H)-one]
> 7.00	CC(c1cccc(-c2ncc(-c3cnn(C)c3)cn2)c1)c1nn(-c2cnn(C)c2)ccc1=O (single isomer, unassigned) [Example 232, 1-(1-methyl-1H-pyrazol-4-yl)-3-[(1S or R)-1-{3-[5-(1-methyl-1H-pyrazol-4-yl)pyrimidin-2-yl]phenyl}ethyl]pyridazin-4(1H)-one]
> 7.00	CC(c1cccc(-c2ncc(-c3cnn(C)c3)cn2)c1)c1nn(-c2cnn(C)c2)ccc1=O (single isomer, unassigned) [Example 233, 1-(1-methyl-1H-pyrazol-4-yl)-3-[(1R or S)-1-{3-[5-(1-methyl-1H-pyrazol-4-yl)pyrimidin-2-yl]phenyl}ethyl]pyridazin-4(1H)-one]
